# Measurements: US20230193562A1, “METHOD FOR CONTROLLING VOLATILE FATTY ACID CONTENT IN PULP, PAPER, AND/OR BOARD MAKING PROCESSES” (SOLENIS TECHNOLOGIES, L.P., priority 2021, published 2023)
# Like-named read-outs stand apart in the source and are kept apart here.
# System: Microbial strains (5) isolated from paper mill water samples
# Assay: VFA reduction in TGE broth cultures of paper mill microbial isolates, VFA measured by GC-FID
# Format: cell-based
# Procedure: Equipment: A Gas Chromatograph (GC) equipped with a flame ionization detector (FID) (e.g. Agilent 6890N GC or equivalent) equipped with an autosampler is utilized with a Fused Silica Capillary Column (e.g. Agilent DB-WAX UI, 30 m×0.53 mm×1.0 μm).
# Sample Preparation: An aliquot (0.5 mL) of a sample is taken from a shaken sample well via pipet and transferred into a glass vial with the standard diluent (4.5 mL). The glass vial is then capped and vortexed, and a portion of the contents transferred into a GC vial.
# GC Standardization: The GC is standardized by injecting 2.0 μL of each working standard using the instrument parameters listed in Table 2 below. The areas for the standards are used to create a linear calibration curve in GC software (e.g. Agilent Chemstation or equivalent).
# Quantitative Sample Analysis: Samples (2 μL injection volume) are analyzed against the working standards, with appropriate dilutions made to keep sample concentrations within the range of the standards. Peak areas of the samples are compared to the standard curves to determine the amounts of each VFA present in each sample via GC software (e.g. Agilent Chemstation or equivalent).
# Calibration: A working standard (10 or 50 ppm, 2 μL) is injected at the beginning and end of each set of samples, and intermittently within long sequences of sampling, and the concentration determined and compared to the to the standard curve to maintain calibration (+/−5% of standard curve).
# General Procedure: Microbial strains (5) are isolated from paper mill water samples onto individual petri plates. Overnight cultures are prepared by inoculating TGE Broth (10 mL) with a single colony from each petri plate (5 isolated strains=5 colonies per 10 mL overnight culture). Each culture is then incubated overnight at 35° C. with shaking. Portions (0.6 mL ea.) of each overnight culture are added to bottles with sterile TGE broth (29.4 mL) and the resulting mixtures are incubated with shaking at 35° C. After 2 hours (T=0), an initial sample from each bottles is taken and analyzed GC as described above. The samples are then dosed with a VFA Control Agent, capped, and incubated with shaking at 35° C. Aliquots of each sample are taken at various times post-dosage and analyzed via GC as described above, with each sample bottle capped and incubated between samplings along with an uninoculated control (sterile TGE broth) and an inoculated control (untreated). % VFA reduction is reported based on the relative VFA concentration (ppm) of a sample determined against the inoculated/untreated control.
# [1] = single VFA Control Agent at 50 or 100 ppm as per Example, 0.5 h post-dosage
# [2] = single VFA Control Agent at 50 or 100 ppm as per Example, 2 h post-dosage
# [3] = single VFA Control Agent at 50 or 100 ppm as per Example, 2.5 h post-dosage
# [4] = single VFA Control Agent, ppm as per Example (25-500 ppm), 4 h post-dosage, 35° C., vs inoculated/untreated control
compound,measurement,setting,value
"O=S([O-])O.[Na+] [Example 28, Sodium bisulfite]",VFA Red. at 0.5 h (%),[1],3.1%
same,VFA Red. at 2 h (%),[2],0.0%
same,VFA Red. at 2.5 h (%),[3],6.9%
"O=P(O)(O)CN(CCN(CP(=O)(O)O)CP(=O)(O)O)CCN(CP(=O)(O)O)CP(=O)(O)O [Example 24, Diethylenetriamine penta(methylene phosphonic acid)]",VFA Red. at 0.5 h (%),,2.1%
same,VFA Red. at 2 h (%),,6.4%
same,VFA Red. at 2.5 h (%),,8.2%
"O=P1([O-])OP(=O)([O-])OP(=O)([O-])OP(=O)([O-])OP(=O)([O-])OP(=O)([O-])O1.[Na+].[Na+].[Na+].[Na+].[Na+].[Na+] [Example 4, Sodium hexametaphosphate]",VFA Red. at 4 h (%),[4],4%
Polyamino polyether methylene phosphonic acid [Example 9],VFA Red. at 4 h (%),[4],5%
Diethylenetriamine penta(methylene phosphonic acid) sodium salt [Example 27],VFA Red. at 0.5 h (%),sodium salt,4.2%
same,VFA Red. at 2 h (%),sodium salt,7.9%
same,VFA Red. at 2.5 h (%),sodium salt,6.9%
Polyamino polyether methylene phosphonic acid [Example 10],VFA Red. at 4 h (%),[4],10%
"O=P(O)(O)CN(CCN(CP(=O)(O)O)CP(=O)(O)O)CCN(CP(=O)(O)O)CP(=O)(O)O [Example 7, Diethylenetriamine penta(methylene phosphonic acid)]",VFA Red. at 4 h (%),,19%
"O=P(O)(O)CN(CCN(CP(=O)(O)O)CP(=O)(O)O)CCN(CP(=O)(O)O)CP(=O)(O)O [Example 25, Diethylenetriamine penta(methylene phosphonic acid)]",VFA Red. at 0.5 h (%),,8.3%
same,VFA Red. at 2 h (%),,12.5%
same,VFA Red. at 2.5 h (%),,9.1%
"O=P1([O-])OP(=O)([O-])OP(=O)([O-])OP(=O)([O-])OP(=O)([O-])OP(=O)([O-])O1.[Na+].[Na+].[Na+].[Na+].[Na+].[Na+] [Example 3, Sodium hexametaphosphate]",VFA Red. at 4 h (%),[4],0%
"O=S([O-])O.[Na+] [Example 29, Sodium bisulfite]",VFA Red. at 0.5 h (%),[1],1.0%
same,VFA Red. at 2 h (%),[2],14.6%
same,VFA Red. at 2.5 h (%),[3],25.5%
Diethylenetriamine penta(methylene phosphonic acid) sodium salt [Example 26],VFA Red. at 0.5 h (%),sodium salt,3.1%
same,VFA Red. at 2 h (%),sodium salt,6.4%
same,VFA Red. at 2.5 h (%),sodium salt,9.1%
"O=P(O)(O)CN(CCN(CP(=O)(O)O)CP(=O)(O)O)CCN(CP(=O)(O)O)CP(=O)(O)O [Example 8, Diethylenetriamine penta(methylene phosphonic acid)]",VFA Red. at 4 h (%),,25%
O=P(O)(O)CN(CCCCCCN(CP(=O)(O)O)CP(=O)(O)O)CCCCCCN(CP(=O)(O)O)CP(=O)(O)O [Example 6],VFA Red. at 4 h (%),[4],12%
O=P(O)(O)CN(CCCCCCN(CP(=O)(O)O)CP(=O)(O)O)CCCCCCN(CP(=O)(O)O)CP(=O)(O)O [Example 5],VFA Red. at 4 h (%),[4],4%
